Structures can show the parent of a compound that is named as a salt.
Assays:
BACE2 [1] = molecular target: T1, BACE2 (Rattus norvegicus, UniProt Q6IE75); test: Assay for BACE inhibition by measuring cellular TMEM27 cleavage; format: cell-based; details: INS-TMEM27 (INS1e-derived) cells, ELISA of shed human TMEM27 in supernatant;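 also: inhibitor added 2 h before doxycycline-induced hTMEM27 expression, supernatant collected after further 46 h, endogenous BACE2 activity read as reduced TMEM27 shedding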
T1 construct: endogenous cellular BACE2 in the Ins1e rat cell line; endogenous in cells; host or cells: INS-TMEM27 (INS1e-derived rat cell line with doxycycline-inducible full-length hTMEM27)
T1 sequence (Q6IE75 63-514): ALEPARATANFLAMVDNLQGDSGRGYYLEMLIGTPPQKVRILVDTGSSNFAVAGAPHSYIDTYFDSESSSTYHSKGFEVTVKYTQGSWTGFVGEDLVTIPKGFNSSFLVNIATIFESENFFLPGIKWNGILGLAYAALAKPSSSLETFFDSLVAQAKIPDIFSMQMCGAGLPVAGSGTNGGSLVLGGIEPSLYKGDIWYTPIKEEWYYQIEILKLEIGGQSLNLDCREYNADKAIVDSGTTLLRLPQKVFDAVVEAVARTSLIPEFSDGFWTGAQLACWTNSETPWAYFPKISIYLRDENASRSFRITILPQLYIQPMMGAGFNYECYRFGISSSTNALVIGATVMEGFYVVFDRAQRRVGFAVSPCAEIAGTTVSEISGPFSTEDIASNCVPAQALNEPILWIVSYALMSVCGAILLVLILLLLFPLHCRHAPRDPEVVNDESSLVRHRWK

BACE2 [2] = molecular target: T2, BACE2 (Homo sapiens, UniProt Q9Y5Z0); test: Assay A: binding studies using SPR based methods, immobilised BACE2; details: CM5 chip, immobilised BACE2 enzyme ectodomain, acetate buffer pH 4.6, 4% DMSO
T2 construct: BACE2 enzyme ectodomain (derived from plasmid “pET17b-T7-hu proBACE2”); T7 (N); made in house
T2 sequence (Q9Y5Z0 63-473 limits assumed): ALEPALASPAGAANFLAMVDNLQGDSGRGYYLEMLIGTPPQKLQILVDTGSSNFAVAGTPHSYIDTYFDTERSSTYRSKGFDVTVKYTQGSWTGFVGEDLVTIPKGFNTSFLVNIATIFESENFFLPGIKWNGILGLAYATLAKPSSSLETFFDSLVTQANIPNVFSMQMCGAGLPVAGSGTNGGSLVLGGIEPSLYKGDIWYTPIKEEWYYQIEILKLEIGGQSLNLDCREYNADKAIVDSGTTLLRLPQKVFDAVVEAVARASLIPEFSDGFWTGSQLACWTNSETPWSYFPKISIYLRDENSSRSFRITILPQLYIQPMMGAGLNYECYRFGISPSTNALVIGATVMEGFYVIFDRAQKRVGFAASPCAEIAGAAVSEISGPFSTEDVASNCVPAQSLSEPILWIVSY

BACE1 [3] = molecular target: T3, BACE1 (Homo sapiens, UniProt P56817); test: Cellular Abeta-lowering assay; format: cell-based; parameters: endogenous in cells; host or cells: HEK293 stably transfected with human APP695 wt; details: HEK293 cells stably transfected with human APP wt (APP695), Aβ40 ELISA of supernatant after 18-20 hrs
BACE1 [4] = molecular target: T3, BACE1; test: Assay A: binding studies using SPR based methods, immobilised BACE1; parameters: 6his-tagged full length BACE 1 expressed in SF9 cells; 6His; made in house; host or cells: SF9 insect cells; details: CM5 chip, immobilised 6his-tagged full length BACE 1, acetate buffer pH 4.6, 4% DMSO;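 also: KD from a 1:1 kinetic fit (koff/kon) of real-time association and dissociation curves, or for fast binders from end-of-association equilibrium responses plotted against log concentration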

T3 sequence (P56817 46-501): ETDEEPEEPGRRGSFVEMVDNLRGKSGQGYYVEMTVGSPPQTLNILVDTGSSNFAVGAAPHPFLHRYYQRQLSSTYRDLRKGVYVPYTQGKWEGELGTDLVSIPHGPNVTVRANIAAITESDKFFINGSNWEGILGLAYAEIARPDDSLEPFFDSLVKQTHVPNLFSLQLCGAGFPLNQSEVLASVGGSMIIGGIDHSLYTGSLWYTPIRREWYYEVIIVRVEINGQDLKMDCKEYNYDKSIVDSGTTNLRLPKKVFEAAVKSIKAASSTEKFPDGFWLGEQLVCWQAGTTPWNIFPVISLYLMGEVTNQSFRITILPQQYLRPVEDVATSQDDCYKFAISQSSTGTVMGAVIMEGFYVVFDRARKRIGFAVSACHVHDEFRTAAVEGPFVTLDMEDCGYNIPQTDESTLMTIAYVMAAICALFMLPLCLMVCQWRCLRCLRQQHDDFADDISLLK

Row | IC50 (BACE2 [1]) | Kd (BACE2 [2]) | IC50 (BACE1 [3]) | Kd (BACE1 [4]) | Structure (SMILES)
1 | 1090 nM | 1070 nM | 400 nM | 2220 nM | CC(C)(F)C(=O)Nc1ccc(F)c([C@]2(C)COCC(N)=N2)c1 [Example 92, N-[3-((R)-5-amino-3-methyl-3,6-dihydro-2H-[1,4]oxazin-3-yl)-4-fluoro-phenyl]-2-fluoro-2-methyl-propionamide formate]
2 | 3390 nM | 3850 nM | 6820 nM | > 10000 nM | CC(=O)Nc1ccc(F)c([C@]2(C)COCC(N)=N2)c1 [Example 93, N-[3-((R)-5-amino-3-methyl-3,6-dihydro-2H-[1,4]oxazin-3-yl)-4-fluoro-phenyl]-acetamide formate]
3 | 1080 nM | 1950 nM | 1400 nM | 2700 nM | CCC(=O)Nc1ccc(F)c([C@]2(C)COCC(N)=N2)c1 [Example 94, N-[3-((R)-5-amino-3-methyl-3,6-dihydro-2H-[1,4]oxazin-3-yl)-4-fluoro-phenyl]-propionamide formate]
4 | 1 nM | 4 nM | 7 nM | 14 nM | Cc1cc(Cl)cnc1C(=O)Nc1ccc(F)c([C@]2(C)COCC(N)=N2)c1 [Example 98, 5-chloro-3-methyl-pyridine-2-carboxylic acid [3-((R)-5-amino-3-methyl-3,6-dihydro-2H-[1,4]oxazin-3-yl)-4-fluoro-phenyl]-amide]
5 | 3 nM | 8 nM | 17 nM | 46 nM | C[C@@]1(c2cc(NC(=O)c3ccc(F)cn3)ccc2F)COCC(N)=N1 [Example 99, 5-fluoro-pyridine-2-carboxylic acid [3-((R)-5-amino-3-methyl-3,6-dihydro-2H-[1,4]oxazin-3-yl)-4-fluoro-phenyl]-amide]
